Measurements reported in US9890111B2, “Crystal structure of bifunctional transglycosylase PBP1b from E. coli and inhibitors thereof” (Academia Sinica, priority 2008, dated 2018).
Values after ≈ are worked out from the molar mass of the structure shown.

Assays:
[1] = molecular target: T1, penicillin-binding protein 1b from E. coli (transglycosylase) (Escherichia coli, UniProt P02919); assay: Lipid II polymerization / transglycosylase (TG) activity assay; assay type: biochemical; details: for remaining activity at 50 µM: read-out: TG Activity at various concentration of cmpd: 50 μM; for remaining activity at 100 µM: read-out: TG Activity at various concentration of cmpd: 100 μM
T1 construct: PBP1b[58-804] was amplified from E. coli genomic DNA and cloned into the expression vector pET15b; His6 (N, cleaved yes); made in house; host or cells: E. coli BL21(DE3)
T1 sequence (P02919 58-804): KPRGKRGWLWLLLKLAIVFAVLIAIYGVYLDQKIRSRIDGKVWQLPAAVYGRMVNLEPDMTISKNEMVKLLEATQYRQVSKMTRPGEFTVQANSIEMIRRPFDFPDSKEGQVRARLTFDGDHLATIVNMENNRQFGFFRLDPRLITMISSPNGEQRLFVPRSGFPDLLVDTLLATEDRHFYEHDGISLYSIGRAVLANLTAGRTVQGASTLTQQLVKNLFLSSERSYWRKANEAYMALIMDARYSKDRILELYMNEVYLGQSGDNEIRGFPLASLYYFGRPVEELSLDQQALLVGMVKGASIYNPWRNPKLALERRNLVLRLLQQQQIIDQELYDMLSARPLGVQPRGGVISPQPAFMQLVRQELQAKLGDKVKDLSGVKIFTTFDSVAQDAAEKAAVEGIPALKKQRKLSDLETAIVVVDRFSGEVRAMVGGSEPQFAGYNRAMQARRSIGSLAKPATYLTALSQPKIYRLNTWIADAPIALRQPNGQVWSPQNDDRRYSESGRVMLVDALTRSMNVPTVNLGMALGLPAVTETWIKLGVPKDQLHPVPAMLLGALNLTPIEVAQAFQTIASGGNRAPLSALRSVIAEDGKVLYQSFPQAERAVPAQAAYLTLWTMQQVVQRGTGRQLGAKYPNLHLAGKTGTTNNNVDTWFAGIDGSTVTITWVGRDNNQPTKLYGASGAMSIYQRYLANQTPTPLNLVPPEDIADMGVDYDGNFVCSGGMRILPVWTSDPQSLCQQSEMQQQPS
Method: Lipid II polymerization assays were carried out by incubating 100 μM fluorophore-labeled lipid II and penicillin-binding protein 1b from E. coli in tubes containing 10 ng/μL N-acetyl muramidase in 50 mM Tris.HCl (pH 8.0), 10 mM MgCl2, 0.1% Triton X-100, 10% DMSO, and 15% MeOH for 30 minutes (Van Nieuwenhze et al. J Am Chem Soc 2002, 124, 3656.). The fluorophore can be dansyl chloride, NBD, BODIPY, fluorescein. Reaction supernatants were then injected onto an anion-exchange HPLC column (SAX1, Supelco Co.) and eluted with a linear gradient of ammonium acetate (20 mM to 0.5 M) in methanol. The eluant was monitored for fluorescence with λex=466 nm and λem=535 nm.
Purified protein was concentrated in 20 mM Tris-HCl (pH 8.0), 300 mM NaCl, and 1 mM DDM. Instead of using Dansyl lipid II, 6-(N-(7-nitrobenz-2-oxa-1,3-diazol-4-yl)amino) hexanoyl (NBD)-labeled Lipid II was prepared as described (Taubes G (2008) Science 321:356-361; Payne D J (2008) Science 321:1644-1645) and used as a substrate to measure TG enzymatic activity, with approach similar to what has been described previously (Holtje J V (1998) Microbiol Mol Biol Rev 62:181-203). Assays were carried out by using the following condition: NBD-Lipid II, 20 nM protein, 50 mM Tris HCl (pH 8.0), 10 mMCaCl2, 0.085% decyl PEG (Anatrace), and 15% MeOH at 37° C. for 0, 1, 3, 5, 7, 9, 20, and 30 min. The concentration of NBD-Lipid II was varied from 1 to 100 μM to determine the rate of the TG activity. After the reaction, 200 μM moenomycin was added to stop the reaction, and 13 μM muramidase (Sigma-Aldrich) was added to digest the TG products to result in NBD-Lipid II without lipid tails. The fluorescent signal decrease of substrate and increase of NBD-Lipid II without lipid tails were detected by anion-exchange column SAX1 (Supelco) on HPLC (Hitachi). The elution procedures was a linear gradient of ammonium acetate (20 mM to 1 M) in MeOH monitored at λexcitation=466 nm and λemission=535 nm. The kinetic parameter was estimated by following the Michaelis-Menten equation. To investigate the importance of transmembrane (TM) helix, PBP1b and PBP1bΔTM (residues Met-1 to Leu-87 were removed) were extracted with the buffer containing 20 mM Tris-HCl (pH 8.0), 300 mM NaCl, and 13 mM FOS-CHOLINE-14 (Anatrace). The protein was purified by nickel chelation chromatography in the presence of 1 mM DDM. The activity assay was carried out by using the following condition: 12 μM NBD-Lipid II, 20 nM protein, 50 mM Tris-HCl (pH 8.0), 10 mM CaCl2, 0.085% decyl PEG, and 15% MeOH at 37° C. for time 0, 1, 3, 5, 7, 9, 20, and 30 min. The initial velocity was used to compare the activity of full-length PBP1b and PBP1bΔTM.

[2] = test system: Staphylococcus aureus (ATCC29213, SA); assay: Minimal inhibitory concentration (MIC), SA; assay type: cell-based; details: for MIC: Staphylococcus aureus, ATCC29213, Staphylococcus aureus ATCC29213, read-out: MIC SA
Method: (§1) The minimal inhibitory concentration (MIC) of tested compounds was determined following the NCCLS standard. The experiments were conducted in 96-well microtiter plates using two-fold dilutions in Muller-Hilton broth with (Streptococcus pneumonia) or without blood (Bacillus subtilis, Enterococcus faecalis, Staphylococcus aureus, Escherichia coli, MRSA, Actinetobacter baumannii, Pseudomonas aeruginosa, Stenotrophomonas maltophilia, and Mycobacterium smegmatis). Exponentially growing cells at 5×10^5 cells/ml were incubated with test compounds at various concentrations. After an 18 h to 24 h incubation at 37° C., MIC was determined as the minimal concentration of the compound that prevents bacterial growth.

[3] = test system: methicillin-resistant Staphylococcus aureus (ATCC33592, MRSA); assay: Minimal inhibitory concentration (MIC), MRSA; assay type: cell-based; details: methicillin-resistant Staphylococcus aureus ATCC33592; for MIC: Staphylococcus aureus, read-out: MIC MRSA
Method: as §1

[4] = test system: Mycobacterium smegmatis (ATCC11565, MS); assay: Minimal inhibitory concentration (MIC), MS; assay type: cell-based; details: for MIC: Mycolicibacterium smegmatis, ATCC11565, Mycobacterium smegmatis ATCC11565, read-out: MIC MS
Method: as §1

[5] = test system: Escherichia coli (ATCC 25922, EC); assay: Minimal inhibitory concentration (MIC), EC; assay type: cell-based; details: Escherichia coli ATCC 25922; for MIC: ATCC25922, read-out: MIC EC
Method: as §1

E. coli PBP1b = E. coli PBP1b (Escherichia coli, UniProt P02919); assay: Fluorescence anisotropy (FA) binding assay; details: library screening
E. coli PBP1b, sequence (P02919 whole entry): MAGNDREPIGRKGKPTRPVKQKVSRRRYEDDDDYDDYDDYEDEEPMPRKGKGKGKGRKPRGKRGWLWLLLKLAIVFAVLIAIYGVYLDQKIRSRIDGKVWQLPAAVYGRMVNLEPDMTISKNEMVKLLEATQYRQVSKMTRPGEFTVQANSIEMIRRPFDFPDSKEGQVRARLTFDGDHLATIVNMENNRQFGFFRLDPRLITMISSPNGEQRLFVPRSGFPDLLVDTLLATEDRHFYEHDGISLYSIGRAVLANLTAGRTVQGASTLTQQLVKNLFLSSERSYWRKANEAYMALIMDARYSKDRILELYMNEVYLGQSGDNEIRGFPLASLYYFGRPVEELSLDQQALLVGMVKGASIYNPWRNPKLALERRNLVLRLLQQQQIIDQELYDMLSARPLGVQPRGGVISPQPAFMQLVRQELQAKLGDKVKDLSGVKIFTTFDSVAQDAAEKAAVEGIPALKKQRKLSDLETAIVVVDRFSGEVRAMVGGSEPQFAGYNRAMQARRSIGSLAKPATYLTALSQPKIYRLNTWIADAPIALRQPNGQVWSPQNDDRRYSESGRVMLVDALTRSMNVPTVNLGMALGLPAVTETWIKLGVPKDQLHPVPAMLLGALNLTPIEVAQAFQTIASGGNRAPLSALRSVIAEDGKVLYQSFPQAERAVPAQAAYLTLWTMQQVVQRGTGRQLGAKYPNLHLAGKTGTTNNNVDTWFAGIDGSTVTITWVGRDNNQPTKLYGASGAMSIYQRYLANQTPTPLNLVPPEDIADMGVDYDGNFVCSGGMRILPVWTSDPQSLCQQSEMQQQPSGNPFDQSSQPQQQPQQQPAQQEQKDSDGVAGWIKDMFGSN
Method: Fluorescence anisotropy measurements were carried out in triplicates in the wells of 384-well or 1536-well plates using a fluorescence detector that is capable to measure fluorescence anisotropy or fluorescencepolarization. For examples, a laser fluorimetry equipped with a 488 nm laser (IsoCyte) from Blueshift Biotech, Inc., (Sunnyvale, Calif., USA) of aViewlux from Perkin Elmer has been used for the application. Various buffers, salts, pH values, and divalent cations (Ca^++, Mg^++, Co^++) were optimized for fluorescence anisotropy measurements. KD and KI determinations were carried out in 100 mM NaCl, 10 mM Tris, pH 8.0. Fluorescence anisotropy values (A) were calculated using the equation: A=(I∥−G*I^⊥)/(I∥+2G*I^⊥), where I∥ is the fluorescence intensity of emitted light parallel to excitation, I^⊥ is the fluorescence intensity of emitted light perpendicular to excitation, and G is the […] that corrects for instrument bias. The G factor is experimentally determined for each run using the probe-only well as the basal anisotropy.
A high-throughput FA assay for transglycosylase was performed as disclosed in co-pending U.S. application Ser. No. 12/354,717. Concentration-dependent changes in fluorescence anisotropy was observed when E. coli PBP1b bound to F-Moe. The maximum anisotropy value was 0.2. […]
KI and IC50 values were determined from competitive displacement assay. […]

PBP = PBP (Escherichia coli, UniProt P02919); assay: PBP binding affinity by SPR; details: read-out: steady-state affinity (KD)
PBP, sequence (P02919 58-804): as the sequence (P02919 58-804) above
Excerpt: Candidate compounds to be tested were labeled with fluorescein (6-carboxyfluoresein N-hydroxysuccinimide ester) under basic conditions to prepare the fluorescent probe. One major concern about the fluorescent probe used in the FA assay is the probe itself; either the fluorophore or the structure modification, may interfere with the binding between the targeted protein and the small molecule. Therefore, the PBP binding affinities of Moe A and the fluorescent probe are compared using SPR.

| Compound | remaining activity at 50 µM [1] | remaining activity at 100 µM [1] | MIC [2] | MIC [3] | MIC [4] | MIC [5] | other results |
| --- | --- | --- | --- | --- | --- | --- | --- |
| O=C(Nc1cc(Cl)ccc1Oc1ccccc1)c1cc(Br)cc(Br)c1O [Compound 009] | 20% | 0% | 0.5 µg/mL (≈ 1 µM) | 0.25 µg/mL (≈ 0.502 µM) | 0.25 µg/mL (≈ 0.502 µM) | > 256 µg/mL | IC50 [1]: 45 µM; transglycosylase inhibition activity (in words) [1]: showed inhibition activities; TG Activity at various concentration of cmpd: 25 μM ([1]; 25 μM compound, TG activity remaining (0% = full inhibition)): 100%; inhibition activity in fluorescence anisotropy (in words) (E. coli PBP1b): showed inhibition activities |
| O=C(Nc1cc(Cl)ccc1O)c1ccc(Cl)c(C(=O)c2ccc(Cl)cc2)c1 [Compound 126] |  |  |  |  |  |  | TG Activity at various concentration of cmpd: 50 μM ([1]; 50 μM compound, TG activity remaining (0% = full inhibition)): 100%; TG Activity at various concentration of cmpd: 100 μM ([1]; 100 μM compound, TG activity remaining (0% = full inhibition)): 100%; MIC SA ([2]; Staphylococcus aureus ATCC29213): 1 µg/mL (≈ 2.38 µM); MIC MRSA [3]: 0.125 µg/mL (≈ 0.297 µM); MIC MS ([4]; Mycobacterium smegmatis ATCC11565): 0.06 µg/mL (≈ 0.143 µM); MIC EC [5]: >256 µg/mL |
| O=C(Nc1cc(Cl)ccc1Cl)c1cc(Br)cc(Br)c1O [Compound 127] | 100% | 100% | 1 µg/mL (≈ 2.27 µM) | 1 µg/mL (≈ 2.27 µM) | 1 µg/mL (≈ 2.27 µM) | 64 µg/mL (≈ 145 µM) |  |
| C=C(C/C=C(\C)CCC=C(C)C)CCC(C)(C)/C=C/CC/C(C)=C\CO[C@H](COP(=O)(O)O[C@H]1OC(C(N)=O)[C@@](C)(O)[C@H](OC(N)=O)C1O[C@@H]1OC(CO[C@@H]2OC(CO)[C@@H](O)[C@H](O)C2O)[C@@H](O[C@@H]2OC(C)[C@@H](O[C@@H]3OC(C(=O)NC4=C(O)CCC4=O)[C@H](O)[C@H](O)C3O)[C@H](O)C2NC(C)=O)[C@H](O)C1NC(C)=O)C(=O)O (some centres unmarked) [Moe A, Moenomycin A] |  |  |  |  |  |  | Kd (PBP): 440 nM |
